Reference: ChEMBL document CHEMBL1201862, “PubChem BioAssay data set” (2004)
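Briefly, cells in 96-well plates were exposed to five compound concentrations for 48 h, and endpoints were estimated by linear interpolation. GI50: concentration for 50% inhibition of growth.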 Active and inactive are the calls of the source. No stated cut-off is given here; in the data, active = GI50 up to about 1.1 µM and inactive = higher.

Columns and labels:
Experiment in all cases: NCI anticancer screen, dose series, 48 h
RXF 631 = system: RXF 631
Malme-3M = system: Malme-3M
NCI-H522 = system: NCI-H522
SW-620 = system: SW-620
SN12C = system: SN12C
LOX IMVI = system: LOX IMVI
SNB-19 = system: SNB-19
OVCAR-3 = system: OVCAR-3
HCC 2998 = system: HCC 2998
OVCAR-5 = system: OVCAR-5
LXFL 529 = system: LXFL 529
DLD-1 = system: DLD-1
SNB-75 = system: SNB-75
SK-MEL-2 = system: SK-MEL-2
TK-10 = system: TK-10
DMS-114 = system: DMS-114
RPMI-8226 = system: RPMI-8226
HL-60 = system: HL-60
NCI-H460 = system: NCI-H460
OVCAR-8 = system: OVCAR-8
RXF 393 = system: RXF 393
M19-MEL = system: M19-MEL
KM12 = system: KM12
EKVX = system: EKVX
CCRF-CEM = system: CCRF-CEM
SK-OV-3 = system: SK-OV-3
UACC-62 = system: UACC-62
SF-268 = system: SF-268
COLO 205 = system: COLO 205
KM-20L2 = system: KM-20L2
ACHN = system: ACHN
OVCAR-4 = system: OVCAR-4
SK-MEL-5 = system: SK-MEL-5
HOP-62 = system: HOP-62
A549 = system: A549
SNB-78 = system: SNB-78
XF498 = system: XF498
NCI-H23 = system: NCI-H23
UO-31 = system: UO-31
DMS-273 = system: DMS-273
HCT-15 = system: HCT-15
K562 = system: K562
SF-295 = system: SF-295
IGROV-1 = system: IGROV-1
MOLT-4 = system: MOLT-4
SK-MEL-28 = system: SK-MEL-28
UACC-257 = system: UACC-257
HOP-92 = system: HOP-92
CAKI-1 = system: CAKI-1
M14 = system: M14
786-0 = system: 786-0
HCT-116 = system: HCT-116
HT-29 = system: HT-29
U-251 = system: U-251
NCI-H226 = system: NCI-H226
A498 = system: A498
HOP-18 = system: HOP-18
SF-539 = system: SF-539

Measured: GI50

CN(C)c1ccc2c(=O)c3ccccc3oc2n1
> 100 µM: HCT-15
inactive: RXF 631 > 100 µM | Malme-3M > 100 µM | NCI-H522 > 100 µM | SW-620 > 100 µM | SN12C > 100 µM | LOX IMVI > 100 µM | SNB-19 > 100 µM | OVCAR-3 91.6 µM | HCC 2998 > 100 µM | OVCAR-5 > 100 µM | LXFL 529 84.3 µM | DLD-1 73.5 µM | SNB-75 > 100 µM | SK-MEL-2 > 100 µM | TK-10 > 100 µM | DMS-114 82.2 µM | RPMI-8226 > 100 µM | HL-60 > 100 µM | NCI-H460 > 100 µM | OVCAR-8 > 100 µM | RXF 393 > 100 µM | M19-MEL > 100 µM | KM12 69.7 µM | EKVX 35 µM | CCRF-CEM > 100 µM | SK-OV-3 > 100 µM | UACC-62 > 100 µM | SF-268 > 100 µM | COLO 205 > 100 µM | KM-20L2 > 100 µM | ACHN 42 µM | OVCAR-4 > 100 µM | SK-MEL-5 38.6 µM | HOP-62 56.6 µM | A549 > 100 µM | SNB-78 > 100 µM | XF498 > 100 µM | NCI-H23 > 100 µM | UO-31 69.2 µM | DMS-273 > 100 µM | K562 > 100 µM | SF-295 > 100 µM | IGROV-1 93.1 µM | MOLT-4 > 100 µM | SK-MEL-28 > 100 µM | UACC-257 > 100 µM | HOP-92 > 100 µM | CAKI-1 > 100 µM | M14 > 100 µM | 786-0 > 100 µM

O=C1OCC(C(=O)c2cccc(O)c2)C1=O (stereo not drawn)
inactive: RXF 631 > 100 µM | HCT-116 > 100 µM | Malme-3M > 100 µM | NCI-H522 > 100 µM | SW-620 > 100 µM | SN12C > 100 µM | HT-29 > 100 µM | LOX IMVI > 100 µM | SNB-19 > 100 µM | OVCAR-3 > 100 µM | HCC 2998 > 100 µM | OVCAR-5 > 100 µM | LXFL 529 > 100 µM | DLD-1 > 100 µM | SNB-75 > 100 µM | U-251 > 100 µM | TK-10 > 100 µM | DMS-114 > 100 µM | RPMI-8226 > 100 µM | NCI-H460 > 100 µM | OVCAR-8 > 100 µM | RXF 393 > 100 µM | M19-MEL > 100 µM | NCI-H226 > 100 µM | KM12 > 100 µM | A498 > 100 µM | EKVX > 100 µM | SK-OV-3 > 100 µM | UACC-62 > 100 µM | SF-268 > 100 µM | HOP-18 > 100 µM | COLO 205 > 100 µM | KM-20L2 > 100 µM | ACHN > 100 µM | OVCAR-4 > 100 µM | SK-MEL-5 > 100 µM | HOP-62 > 100 µM | SF-539 > 100 µM | A549 > 100 µM | SNB-78 > 100 µM | NCI-H23 > 100 µM | UO-31 > 100 µM | DMS-273 > 100 µM | SF-295 > 100 µM | IGROV-1 > 100 µM | SK-MEL-28 > 100 µM | UACC-257 > 100 µM | HOP-92 > 100 µM | CAKI-1 > 100 µM | M14 > 100 µM | 786-0 > 100 µM
> 100 µM: HCT-15
